Results from US20250017973A1, “Nutritional composition for cancer” (N.V. Nutricia, priority 2022, published 2025).

Test system: mammary adenocarcinoma cells
Test: Dark Agouti Mammary Adenocarcinoma (DAMA) tumour-bearing model: tumour growth and MTX efficacy
Type: in vivo, rat
Conditions: MTX treated rats
Procedure: Tumour-bearing studies were conducted in accordance with ethical guidelines approved by the University of Adelaide Animal Ethics committee in accordance with the National Health and Medical Research Committee's Code for the care and use of animals for scientific research. All experiments were performed with N=8 rats per group.
The rats were individually-housed in conventional, open top cages under 12 h light/dark cycles with ad libitum access to autoclaved food and sterile water. Sawdust bedding was provided in all cases with enrichment (crinkle paper for tumour-naïve model or toilet rolls for tumour-bearing model). All cages were randomly arranged across racks to prevent potential bias and dampen variation.
The Dark Agouti Mammary Adenocarcinoma (DAMA) model was used to assess the effect of a composition comprising hydrolysed whey proteins and MCTs on tumor growth. Following acclimatisation (1 week with AIN93G control diet), female DA rats weighing 150-170 g were given ad libitum access to the test or control diet (table 1) for two weeks prior to methotrexate (MTX) treatment (day-14). […] Tumours were measured daily using digital calipers to determine their volume (cm^3). Tumour burden was calculated as tumour length width*depth (volume) and expressed as relative to body weight (% BW, cm^3/g). […]

In the case of `CN(Cc1cnc2nc(N)nc(N)c2n1)c1ccc(C(=O)N[C@@H](CCC(=O)O)C(=O)O)cc1` [MTX, methotrexate], the “tumour burden at necropsy (FIG. 1B volume, FIG. 1C weight, relative to body weight)” value is reported as “significantly decreased to (near) zero”.
